Measurements taken from ChEMBL document CHEMBL4017493, “Peptide Half-Life Extension: Divalent, Small-Molecule Albumin Interactions Direct the Systemic Properties of Glucagon-Like Peptide 1 (GLP-1) Analogues” (J Med Chem, 2017).
The source made the active and inactive calls. The rule behind the calls is not given here.

Columns and labels:
Albumin = Albumin (Homo sapiens, UniProt P02768); experiment: Binding affinity to human serum albumin by SPR analysis; type: ADME; details: isolated protein
Mus musculus [1] = experiment: Antiobesity activity in NMRI mouse assessed as reduction in cumulative food intake at 10 nmol/ml, sc measured up to 20 hrs; type: functional, organism-based
[2] = Induction of self aggregation in pH 7.4 PBS buffer assessed as retention volume by size exclusion chromatographic method
[3] = Induction of monodisperse self aggregation in pH 7.4 PBS buffer by dynamic light scattering method
[4] = Induction of self aggregation in pH 7.4 PBS buffer assessed as supramolecular hydrodynamic radii at 1 mg/ml by dynamic light scattering method
Mus musculus [5] = experiment: Antidiabetic activity in NMRI mouse assessed as blood glucose AUC (0 to 120 mins) at 10 nmol/ml, sc administered 45 mins prior to glucose challenge by OGTT (reference value: 1725 +/- 257 mmol/L); type: functional, organism-based; set-up: dose 10 nmol/ml, time < 2 hr
Mus musculus [6] = experiment: Antiobesity activity in NMRI mouse assessed as food intake at 10 nmol/ml, sc measured after 20 hrs (reference value: 3.51 +/- 0.49 g); type: functional
[7] = Half life in C57Bl/6 mouse plasma at 10 nmol/ml, sc; type: ADME
[8] = Tmax in C57Bl/6 mouse plasma at 10 nmol/ml, sc; type: ADME
Mus musculus [9] = experiment: Antiobesity activity in NMRI mouse assessed as reduction in acute food intake at 10 nmol/ml, sc measured up to 20 hrs; type: functional, organism-based
[10] = Half life in iv dosed human; type: ADME, organism-based; details: in vivo

Albumin, sequence (P02768 whole entry): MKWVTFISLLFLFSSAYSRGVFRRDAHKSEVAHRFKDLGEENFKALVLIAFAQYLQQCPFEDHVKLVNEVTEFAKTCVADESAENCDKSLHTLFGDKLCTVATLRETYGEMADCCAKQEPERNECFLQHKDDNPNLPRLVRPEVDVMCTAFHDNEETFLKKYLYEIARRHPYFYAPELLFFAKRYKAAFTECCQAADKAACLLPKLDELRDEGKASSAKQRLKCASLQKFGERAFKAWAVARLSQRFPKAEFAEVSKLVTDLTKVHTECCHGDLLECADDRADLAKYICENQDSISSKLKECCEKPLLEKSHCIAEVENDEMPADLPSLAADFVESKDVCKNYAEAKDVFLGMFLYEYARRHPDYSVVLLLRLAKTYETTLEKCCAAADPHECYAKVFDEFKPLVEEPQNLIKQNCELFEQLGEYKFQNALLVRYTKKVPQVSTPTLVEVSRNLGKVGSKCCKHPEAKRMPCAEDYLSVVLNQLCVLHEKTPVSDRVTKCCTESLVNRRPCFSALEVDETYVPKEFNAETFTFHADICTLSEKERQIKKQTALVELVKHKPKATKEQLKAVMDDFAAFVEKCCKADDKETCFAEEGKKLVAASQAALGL

| PB (Albumin) | SMILES | Activity (Mus musculus [1]) | Vr [2] | also measured |
| --- | --- | --- | --- | --- |
| Dose-dependent effect | CC[C@H](C)[C@H](NC(=O)[C@H](Cc1ccccc1)NC(=O)[C@H](CCC(=O)O)NC(=O)[C@H](CCCCNC(=O)COc1ccc(-c2ccc(F)cc2F)cc1C(=O)O)NC(=O)[C@H](C)NC(=O)[C@H](C)NC(=O)[C@H](CCC(N)=O)NC(=O)CNC(=O)[C@H](CCC(=O)O)NC(=O)[C@H](CC(C)C)NC(=O)[C@H](Cc1ccc(O)cc1)NC(=O)[C@H](CO)NC(=O)[C@H](CO)NC(=O)[C@@H](NC(=O)[C@H](CC(=O)O)NC(=O)[C@H](CO)NC(=O)[C@@H](NC(=O)[C@H](Cc1ccccc1)NC(=O)[C@@H](NC(=O)CNC(=O)[C@H](CCC(=O)O)NC(=O)[C@H](C)NC(=O)[C@@H](N)Cc1cnc[nH]1)[C@@H](C)O)[C@@H](C)O)C(C)C)C(=O)N[C@@H](C)C(=O)N[C@@H](Cc1c[nH]c2ccccc12)C(=O)N[C@@H](CC(C)C)C(=O)N[C@H](C(=O)N[C@@H](CCCNC(=N)N)C(=O)NCC(=O)N[C@@H](CCCNC(=N)N)C(=O)NCC(=O)O)C(C)C | inactive |  |  |
| Dose-dependent effect | CC[C@H](C)[C@H](NC(=O)[C@H](Cc1ccccc1)NC(=O)[C@H](CCC(=O)O)NC(=O)[C@H](CCCCNC(=O)[C@H](CCCNC(=O)COc1ccc(-c2ccc(F)cc2F)cc1C(=O)O)NC(=O)CC[C@H](NC(=O)Cc1c(C)n(C(=O)c2ccc(Cl)cc2)c2ccc(OC)cc12)C(=O)O)NC(=O)[C@H](C)NC(=O)[C@H](C)NC(=O)[C@H](CCC(N)=O)NC(=O)CNC(=O)[C@H](CCC(=O)O)NC(=O)[C@H](CC(C)C)NC(=O)[C@H](Cc1ccc(O)cc1)NC(=O)[C@H](CO)NC(=O)[C@H](CO)NC(=O)[C@@H](NC(=O)[C@H](CC(=O)O)NC(=O)[C@H](CO)NC(=O)[C@@H](NC(=O)[C@H](Cc1ccccc1)NC(=O)[C@@H](NC(=O)CNC(=O)[C@H](CCC(=O)O)NC(=O)[C@H](C)NC(=O)[C@@H](N)Cc1cnc[nH]1)[C@@H](C)O)[C@@H](C)O)C(C)C)C(=O)N[C@@H](C)C(=O)N[C@@H](Cc1c[nH]c2ccccc12)C(=O)N[C@@H](CC(C)C)C(=O)N[C@H](C(=O)N[C@@H](CCCNC(=N)N)C(=O)NCC(=O)N[C@@H](CCCNC(=N)N)C(=O)NCC(=O)O)C(C)C | Active | 6.6 mL | Activity [3]: Active; Activity [4]: 21.6 nm; AUC (Mus musculus [5]): 642 mmol·min/L; Activity (Mus musculus [6]): 1.62 g; half-life [7]: 299 min; Tmax [8]: 4 h |
| Dose-dependent effect | CC[C@H](C)[C@H](NC(=O)[C@H](Cc1ccccc1)NC(=O)[C@H](CCC(=O)O)NC(=O)[C@H](CCCCNC(=O)CC[C@H](NC(=O)Cc1c(C)n(C(=O)c2ccc(Cl)cc2)c2ccc(OC)cc12)C(=O)O)NC(=O)[C@H](C)NC(=O)[C@H](C)NC(=O)[C@H](CCC(N)=O)NC(=O)CNC(=O)[C@H](CCC(=O)O)NC(=O)[C@H](CC(C)C)NC(=O)[C@H](Cc1ccc(O)cc1)NC(=O)[C@H](CO)NC(=O)[C@H](CO)NC(=O)[C@@H](NC(=O)[C@H](CC(=O)O)NC(=O)[C@H](CO)NC(=O)[C@@H](NC(=O)[C@H](Cc1ccccc1)NC(=O)[C@@H](NC(=O)CNC(=O)[C@H](CCC(=O)O)NC(=O)[C@H](C)NC(=O)[C@@H](N)Cc1cnc[nH]1)[C@@H](C)O)[C@@H](C)O)C(C)C)C(=O)N[C@@H](C)C(=O)N[C@@H](Cc1c[nH]c2ccccc12)C(=O)N[C@@H](CC(C)C)C(=O)N[C@H](C(=O)N[C@@H](CCCNC(=N)N)C(=O)NCC(=O)N[C@@H](CCCNC(=N)N)C(=O)NCC(=O)O)C(C)C | inactive | 6.8 to 16 mL | AUC (Mus musculus [5]): 614 mmol·min/L; Activity (Mus musculus [9]): inactive; half-life [7]: 55 min; Tmax [8]: 0.5 h |

Second part, the molecule before the results:

| SMILES | PB (Albumin) | Activity (Mus musculus [1]) | Vr [2] | also measured |
| --- | --- | --- | --- | --- |
| CC[C@H](C)[C@H](NC(=O)[C@H](Cc1ccccc1)NC(=O)[C@H](CCC(=O)O)NC(=O)[C@H](CCCCNC(=O)COCCOCCNC(=O)COc1ccc(-c2ccc(F)cc2F)cc1C(=O)O)NC(=O)[C@H](C)NC(=O)[C@H](C)NC(=O)[C@H](CCC(N)=O)NC(=O)CNC(=O)[C@H](CCC(=O)O)NC(=O)[C@H](CC(C)C)NC(=O)[C@H](Cc1ccc(O)cc1)NC(=O)[C@H](CO)NC(=O)[C@H](CO)NC(=O)[C@@H](NC(=O)[C@H](CC(=O)O)NC(=O)[C@H](CO)NC(=O)[C@@H](NC(=O)[C@H](Cc1ccccc1)NC(=O)[C@@H](NC(=O)CNC(=O)[C@H](CCC(=O)O)NC(=O)[C@H](C)NC(=O)[C@@H](N)Cc1cnc[nH]1)[C@@H](C)O)[C@@H](C)O)C(C)C)C(=O)N[C@@H](C)C(=O)N[C@@H](Cc1c[nH]c2ccccc12)C(=O)N[C@@H](CC(C)C)C(=O)N[C@H](C(=O)N[C@@H](CCCNC(=N)N)C(=O)NCC(=O)N[C@@H](CCCNC(=N)N)C(=O)NCC(=O)O)C(C)C |  | inactive |  |  |
| CC[C@H](C)[C@H](NC(=O)[C@H](Cc1ccccc1)NC(=O)[C@H](CCC(=O)O)NC(=O)[C@H](CCCCN)NC(=O)[C@H](C)NC(=O)[C@H](C)NC(=O)[C@H](CCC(N)=O)NC(=O)CNC(=O)[C@H](CCC(=O)O)NC(=O)[C@H](CC(C)C)NC(=O)[C@H](Cc1ccc(O)cc1)NC(=O)[C@H](CO)NC(=O)[C@H](CO)NC(=O)[C@@H](NC(=O)[C@H](CC(=O)O)NC(=O)[C@H](CO)NC(=O)[C@@H](NC(=O)[C@H](Cc1ccccc1)NC(=O)[C@@H](NC(=O)CNC(=O)[C@H](CCC(=O)O)NC(=O)[C@H](C)NC(=O)[C@@H](N)Cc1c[nH]cn1)[C@@H](C)O)[C@@H](C)O)C(C)C)C(=O)N[C@@H](C)C(=O)N[C@@H](Cc1c[nH]c2ccccc12)C(=O)N[C@@H](CC(C)C)C(=O)N[C@H](C(=O)N[C@@H](CCCNC(=N)N)C(=O)NCC(=O)N[C@@H](CCCNC(=N)N)C(=O)NCC(=O)O)C(C)C |  |  | 14.1 mL |  |
| CC[C@H](C)[C@H](NC(=O)[C@H](Cc1ccccc1)NC(=O)[C@H](CCC(=O)O)NC(=O)[C@H](CCCCNC(=O)COCCOCCNC(=O)[C@H](CCCNC(=O)COc1ccc(-c2ccc(F)cc2F)cc1C(=O)O)NC(=O)CC[C@H](NC(=O)Cc1c(C)n(C(=O)c2ccc(Cl)cc2)c2ccc(OC)cc12)C(=O)O)NC(=O)[C@H](C)NC(=O)[C@H](C)NC(=O)[C@H](CCC(N)=O)NC(=O)CNC(=O)[C@H](CCC(=O)O)NC(=O)[C@H](CC(C)C)NC(=O)[C@H](Cc1ccc(O)cc1)NC(=O)[C@H](CO)NC(=O)[C@H](CO)NC(=O)[C@@H](NC(=O)[C@H](CC(=O)O)NC(=O)[C@H](CO)NC(=O)[C@@H](NC(=O)[C@H](Cc1ccccc1)NC(=O)[C@@H](NC(=O)CNC(=O)[C@H](CCC(=O)O)NC(=O)[C@H](C)NC(=O)[C@@H](N)Cc1cnc[nH]1)[C@@H](C)O)[C@@H](C)O)C(C)C)C(=O)N[C@@H](C)C(=O)N[C@@H](Cc1c[nH]c2ccccc12)C(=O)N[C@@H](CC(C)C)C(=O)N[C@H](C(=O)N[C@@H](CCCNC(=N)N)C(=O)NCC(=O)N[C@@H](CCCNC(=N)N)C(=O)NCC(=O)O)C(C)C |  | Active |  |  |
| CC[C@H](C)[C@H](NC(=O)[C@H](Cc1ccccc1)NC(=O)[C@H](CCC(=O)O)NC(=O)[C@H](CCCCN)NC(=O)[C@H](C)NC(=O)[C@H](C)NC(=O)[C@H](CCC(N)=O)NC(=O)CNC(=O)[C@H](CCC(=O)O)NC(=O)[C@H](CC(C)C)NC(=O)[C@H](Cc1ccc(O)cc1)NC(=O)[C@H](CO)NC(=O)[C@H](CO)NC(=O)[C@@H](NC(=O)[C@H](CC(=O)O)NC(=O)[C@H](CO)NC(=O)[C@@H](NC(=O)[C@H](Cc1ccccc1)NC(=O)[C@@H](NC(=O)CNC(=O)[C@H](CCC(=O)O)NC(=O)[C@H](C)NC(=O)[C@H](Cc1cnc[nH]1)NC(=O)[C@H](CCCNC(=N)N)NC(=O)[C@H](CCC(=O)O)NC(=O)[C@H](Cc1ccccc1)NC(=O)[C@H](CCC(=O)O)NC(=O)[C@H](CC(=O)O)NC(=O)[C@@H](N)Cc1cnc[nH]1)[C@@H](C)O)[C@@H](C)O)C(C)C)C(=O)N[C@@H](C)C(=O)N[C@@H](Cc1c[nH]c2ccccc12)C(=O)N[C@@H](CC(C)C)C(=O)N[C@H](C(=O)N[C@@H](CCCCN)C(=O)NCC(=O)N[C@@H](CCCNC(=N)N)C(N)=O)C(C)C |  |  |  | half-life [10]: < 2 min |
| CC[C@H](C)[C@H](NC(=O)[C@H](Cc1ccccc1)NC(=O)[C@H](CCC(=O)O)NC(=O)[C@H](CCCCNC(=O)COc1ccc(-c2ccccc2)cc1C(=O)O)NC(=O)[C@H](C)NC(=O)[C@H](C)NC(=O)[C@H](CCC(N)=O)NC(=O)CNC(=O)[C@H](CCC(=O)O)NC(=O)[C@H](CC(C)C)NC(=O)[C@H](Cc1ccc(O)cc1)NC(=O)[C@H](CO)NC(=O)[C@H](CO)NC(=O)[C@@H](NC(=O)[C@H](CC(=O)O)NC(=O)[C@H](CO)NC(=O)[C@@H](NC(=O)[C@H](Cc1ccccc1)NC(=O)[C@@H](NC(=O)CNC(=O)[C@H](CCC(=O)O)NC(=O)[C@H](C)NC(=O)[C@@H](N)Cc1cnc[nH]1)[C@@H](C)O)[C@@H](C)O)C(C)C)C(=O)N[C@@H](C)C(=O)N[C@@H](Cc1c[nH]c2ccccc12)C(=O)N[C@@H](CC(C)C)C(=O)N[C@H](C(=O)N[C@@H](CCCNC(=N)N)C(=O)NCC(=O)N[C@@H](CCCNC(=N)N)C(=O)NCC(=O)O)C(C)C |  |  | 9.8 to 16 mL |  |
